In one test the target is NLRC4 (Mus musculus, UniProt Q3UP24). The test can be described thus: NLRC4 (Flagellin)-mediated inflammasome activation, secreted IL-1β ELISA in immortalized BMDMs. It counts as cell-based, murine. The following applies: BT032 20, 100 μM. For orientation: An ELISA detects its analyte on a solid surface through an enzyme-linked reagent.
Test [1] has as its system ASC specks (NLRP3 inflammasome complex). The test can be described thus: Nigericin-induced ASC speck formation in ASC-cerulean/NLRP3 macrophages. It counts as cell-based. The following applies: 350 μM, 60 mins before nigericin 3 μM for 90 mins.
The next test deals with T1, AIM2 (Mus musculus, UniProt Q91VJ1).
T1 sequence (Q91VJ1 1-354): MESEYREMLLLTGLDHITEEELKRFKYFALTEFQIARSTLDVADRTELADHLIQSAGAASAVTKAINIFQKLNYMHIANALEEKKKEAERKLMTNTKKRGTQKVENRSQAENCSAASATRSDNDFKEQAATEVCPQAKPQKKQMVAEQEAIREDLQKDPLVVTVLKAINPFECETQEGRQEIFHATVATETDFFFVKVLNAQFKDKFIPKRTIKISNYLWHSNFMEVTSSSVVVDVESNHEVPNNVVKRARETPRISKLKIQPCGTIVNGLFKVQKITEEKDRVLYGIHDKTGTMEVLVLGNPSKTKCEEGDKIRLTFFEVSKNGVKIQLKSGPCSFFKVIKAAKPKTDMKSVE
The test can be described thus: AIM2 (poly dA:dT)-mediated inflammasome activation, secreted IL-1β ELISA in immortalized BMDMs. It is filed as cell-based, murine. The following applies: BT032 20, 100 μM.

Test [2] concerns NLRP1. The test can be described thus: NLRP1 (L18-MDP)-induced inflammasome activation in immortalized BMDMs, secreted IL-1β ELISA (Example 10). It counts as cell-based. The following applies: 20, 100, 350 μM; L18-MDP 100 μg/mL, 16 hours.
Test [3] has as its system NLRP1. Nature of the test: NLRP1-mediated inflammasome activity, secreted IL-1β ELISA in immortalized BMDMs (L18-MDP). The following applies: for NLRP1 (L18-MDP)-induced inflammasome activation: BT032 20, 100 μM, MCC950 5 μM. It is filed as cell-based, murine.
The subject of test [4] is non-canonical inflammasome. The test can be described thus: Non-canonical inflammasome activity (LPS (B4)), secreted IL-1β ELISA in immortalized BMDMs. The following applies: BT032 20, 100 μM. It is filed as cell-based, murine.
The subject of test [5] is HKx31 (H3N2) influenza A virus. It counts as in vivo, C57BL/6 mice.
Test [6] has as its target T2, NLRP1 (Homo sapiens, UniProt Q9C000).
T2 construct: Primary bronchial epithelial cells (PBEC) were obtained from bronchial brushings; endogenous in cells; host or cells: primary human bronchial epithelial cells (PBEC) from bronchial brushings
T2 sequence (Q9C000 1-1212 limits assumed): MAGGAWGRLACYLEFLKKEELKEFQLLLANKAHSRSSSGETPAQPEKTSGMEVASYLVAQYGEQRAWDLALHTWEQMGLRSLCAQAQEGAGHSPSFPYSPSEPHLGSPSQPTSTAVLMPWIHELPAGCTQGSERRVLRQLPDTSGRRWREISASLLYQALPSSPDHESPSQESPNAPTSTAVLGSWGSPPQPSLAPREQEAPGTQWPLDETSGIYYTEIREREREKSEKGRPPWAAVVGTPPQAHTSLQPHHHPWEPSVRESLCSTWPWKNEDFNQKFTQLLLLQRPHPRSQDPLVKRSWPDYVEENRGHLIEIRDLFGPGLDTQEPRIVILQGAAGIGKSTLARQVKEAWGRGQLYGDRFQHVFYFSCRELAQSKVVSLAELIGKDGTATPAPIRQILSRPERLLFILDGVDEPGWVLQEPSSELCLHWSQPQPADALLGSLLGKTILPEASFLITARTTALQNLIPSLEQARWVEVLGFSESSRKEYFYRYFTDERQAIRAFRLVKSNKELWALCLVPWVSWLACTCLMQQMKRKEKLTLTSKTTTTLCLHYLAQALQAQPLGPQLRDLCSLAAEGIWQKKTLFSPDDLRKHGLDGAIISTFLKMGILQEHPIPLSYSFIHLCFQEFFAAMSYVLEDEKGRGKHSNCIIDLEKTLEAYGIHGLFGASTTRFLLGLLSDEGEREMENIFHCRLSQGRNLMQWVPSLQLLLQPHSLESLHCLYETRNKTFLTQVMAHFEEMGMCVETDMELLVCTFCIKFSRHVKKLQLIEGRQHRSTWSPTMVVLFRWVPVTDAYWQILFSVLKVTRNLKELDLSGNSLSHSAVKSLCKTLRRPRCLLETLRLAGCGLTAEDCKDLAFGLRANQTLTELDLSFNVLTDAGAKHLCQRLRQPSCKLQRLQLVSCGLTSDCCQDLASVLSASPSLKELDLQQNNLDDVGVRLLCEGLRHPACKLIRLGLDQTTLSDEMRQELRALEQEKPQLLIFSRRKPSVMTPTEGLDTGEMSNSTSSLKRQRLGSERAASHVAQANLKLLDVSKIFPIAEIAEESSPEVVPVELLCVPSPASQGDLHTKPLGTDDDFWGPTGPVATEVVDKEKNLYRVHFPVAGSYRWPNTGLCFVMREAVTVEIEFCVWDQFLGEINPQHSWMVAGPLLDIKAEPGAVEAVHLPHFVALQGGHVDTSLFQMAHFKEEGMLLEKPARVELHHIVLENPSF
T2 sequence (Q9C000 1213-1473 limits assumed): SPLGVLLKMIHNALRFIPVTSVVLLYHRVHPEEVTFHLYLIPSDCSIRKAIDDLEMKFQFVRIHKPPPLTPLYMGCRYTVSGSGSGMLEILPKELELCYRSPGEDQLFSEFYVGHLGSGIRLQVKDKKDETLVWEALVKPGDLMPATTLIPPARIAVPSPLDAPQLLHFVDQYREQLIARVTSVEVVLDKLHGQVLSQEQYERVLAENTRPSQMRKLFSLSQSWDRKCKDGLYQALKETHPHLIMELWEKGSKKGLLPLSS
The test can be described thus: poly I:C NLRP1 activation in primary human bronchial epithelial cells, secreted IL-1β ELISA. It counts as cell-based. The following applies: 20, 100, 350 μM. The method, then:
Methods. Primary bronchial epithelial cells (PBEC) were obtained from bronchial brushings and cultured under submerged conditions on collagen-coated flasks in supplemented bronchial epithelial growth medium. PBECs were seeded at 2.5×10^5/ml cells in collagen-coated 96 well plates overnight.

A further test has as its target NLRP3 (Mus musculus, UniProt Q8R4B8). Nature of the test: NLRP3-mediated inflammasome activity, secreted IL-1β ELISA in LPS-primed immortalized BMDMs (nigericin, MSU, silica).
The next test deals with T3, NLRP3 inflammasome (Mus musculus, UniProt Q8R4B8).
T3 construct: Immortalized wild-type C57BL/6 bone-marrow derived macrophages (iBMDMs); endogenous in cells; host or cells: immortalized wild-type C57BL/6 bone-marrow derived macrophages (iBMDMs), LPS-primed
T3 sequence (Q8R4B8 whole entry): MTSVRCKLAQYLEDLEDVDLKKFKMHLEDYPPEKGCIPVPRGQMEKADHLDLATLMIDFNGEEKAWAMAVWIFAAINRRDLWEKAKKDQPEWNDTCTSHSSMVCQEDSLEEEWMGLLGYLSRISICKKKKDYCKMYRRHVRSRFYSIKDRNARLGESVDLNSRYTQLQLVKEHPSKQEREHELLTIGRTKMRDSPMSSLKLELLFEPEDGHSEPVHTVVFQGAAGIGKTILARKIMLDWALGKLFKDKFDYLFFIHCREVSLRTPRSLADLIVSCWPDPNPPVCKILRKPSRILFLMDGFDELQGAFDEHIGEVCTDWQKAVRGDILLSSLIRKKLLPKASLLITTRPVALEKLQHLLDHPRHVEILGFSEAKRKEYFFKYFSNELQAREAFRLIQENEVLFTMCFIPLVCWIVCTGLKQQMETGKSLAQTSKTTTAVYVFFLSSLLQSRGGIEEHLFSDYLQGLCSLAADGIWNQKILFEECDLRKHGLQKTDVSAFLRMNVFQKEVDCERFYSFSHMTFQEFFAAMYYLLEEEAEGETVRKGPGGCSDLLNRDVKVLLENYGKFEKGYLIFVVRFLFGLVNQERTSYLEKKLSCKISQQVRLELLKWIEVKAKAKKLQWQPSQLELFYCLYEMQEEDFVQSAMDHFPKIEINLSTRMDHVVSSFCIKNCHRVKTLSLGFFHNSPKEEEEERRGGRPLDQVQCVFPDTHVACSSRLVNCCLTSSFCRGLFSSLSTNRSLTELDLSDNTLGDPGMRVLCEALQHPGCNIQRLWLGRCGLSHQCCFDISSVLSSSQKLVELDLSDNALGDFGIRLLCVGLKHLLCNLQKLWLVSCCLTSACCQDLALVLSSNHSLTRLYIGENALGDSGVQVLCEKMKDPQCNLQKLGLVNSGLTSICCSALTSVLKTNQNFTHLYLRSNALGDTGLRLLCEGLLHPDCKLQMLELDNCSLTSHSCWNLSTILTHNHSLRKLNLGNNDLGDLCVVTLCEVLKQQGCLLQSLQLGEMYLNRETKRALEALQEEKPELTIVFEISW
The test can be described thus: IL-1β secretion (ELISA) in LPS-primed iBMDMs stimulated with silica or nigericin. It is filed as cell-based, murine. The following applies: LPS 100 ng/mL primed iBMDMs; silica 250 μg/mL or nigericin 6 μM; compound 300, 150, 30, 3 μM. The method, then:
In vitro stimulation of murine macrophages. Immortalized wild-type C57BL/6 bone-marrow derived macrophages (iBMDMs) were grown in DMEM supplemented with 10% heat inactivated FBS and 2 mM glutamine. iBMDMs were seeded in 96-well plates 24 hours prior incubation with lipopolysaccharide (LPS; 100 ng/mL) for 3 hours. Cells were then incubated with a control probenecid compound (probenecid dissolved in DMSO (Prob/D), probenecid dissolved in PBS (Prob/P)) or one of the probenecid analogs of the present technology (BT032, BT132, BT133, BT134, BT135, BT136, BT137, BT138, BT139, or BT140) at concentrations of 300 μM, 150 μM, 30 μM, or 3 μM 1 hour prior to stimulation with NLRP3 inflammasome activators, silica (250 μg/mL) or nigericin (6 μM). After an additional 6 hours, cell supernatants were collected and levels of IL-1β were quantified by ELISA. These experiments were run in triplicate three times.

SMILES strings stand for the structures.

NLRP3, sequence (Q8R4B8 whole entry): as above
NLRC4, sequence (Q3UP24 whole entry): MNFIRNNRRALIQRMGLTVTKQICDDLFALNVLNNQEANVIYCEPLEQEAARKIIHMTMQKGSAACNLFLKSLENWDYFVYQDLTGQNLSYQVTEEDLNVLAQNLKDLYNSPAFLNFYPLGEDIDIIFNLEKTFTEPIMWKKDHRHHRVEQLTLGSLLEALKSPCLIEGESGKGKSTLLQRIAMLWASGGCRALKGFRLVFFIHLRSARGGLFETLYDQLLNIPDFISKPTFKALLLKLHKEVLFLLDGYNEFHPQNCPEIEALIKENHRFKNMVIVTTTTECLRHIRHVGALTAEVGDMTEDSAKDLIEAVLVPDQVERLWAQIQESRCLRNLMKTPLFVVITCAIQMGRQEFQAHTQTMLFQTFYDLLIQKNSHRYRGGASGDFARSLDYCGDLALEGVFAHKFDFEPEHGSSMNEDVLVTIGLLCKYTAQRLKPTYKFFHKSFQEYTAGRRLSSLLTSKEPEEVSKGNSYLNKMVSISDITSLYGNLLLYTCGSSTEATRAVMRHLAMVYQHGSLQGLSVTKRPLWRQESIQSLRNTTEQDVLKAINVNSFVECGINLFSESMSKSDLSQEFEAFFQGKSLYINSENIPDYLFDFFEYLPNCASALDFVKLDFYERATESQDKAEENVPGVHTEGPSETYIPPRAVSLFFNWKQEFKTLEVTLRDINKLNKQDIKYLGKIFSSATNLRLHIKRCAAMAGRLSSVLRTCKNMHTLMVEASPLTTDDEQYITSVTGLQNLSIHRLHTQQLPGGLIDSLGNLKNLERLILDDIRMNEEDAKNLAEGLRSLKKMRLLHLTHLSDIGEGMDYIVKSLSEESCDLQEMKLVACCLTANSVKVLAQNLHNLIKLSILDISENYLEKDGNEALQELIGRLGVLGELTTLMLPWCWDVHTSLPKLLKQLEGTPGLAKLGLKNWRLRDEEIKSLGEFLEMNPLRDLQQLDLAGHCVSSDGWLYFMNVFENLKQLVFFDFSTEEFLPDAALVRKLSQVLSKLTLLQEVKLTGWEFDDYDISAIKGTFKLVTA

One may read the IC50 as the midpoint of a concentration-inhibition curve. Consider `CCCN(CCC)S(=O)(=O)c1ccc(-c2ccc(CCCC(=O)O)cc2)cc1` [BT032, 4-(4′-(N,N-dipropylsulfamoyl)-[1,1′-biphenyl]-4-yl)butanoic acid], for which the “NLRC4 (Flagellin)-mediated inflammasome activation” value at NLRC4 was “no effect”. Also, the “ASC specks in cells” value in test [1] is listed as “substantially reduced ASC specks”. Further, the “AIM2 (poly dA:dT)-mediated inflammasome activation” value on AIM2 was “no effect”. In addition, the “NLRP1 (L18-MDP)-induced inflammasome activation (secreted IL-1β)” value (“NLRP1 … (secreted IL-1β)” for short) in the test on NLRP1 [2] is reported as “dose-dependently inhibited”. Moreover, the “NLRP1 (L18-MDP)-induced inflammasome activation” value in the test on NLRP1 [3] is “dose-dependently inhibited”. In addition, the IC50 was determined as 30 µM in the test on NLRP1 [3] (L18-MDP 100 μg/mL, drug 3.9-350 μM, read-out: IC50, inhibition of NLRP1-mediated inflammasome activity) and 30 µM against NLRP3. Also, the “non-canonical inflammasome activity (LPS (B4))” value in test [4] is reported as “limited impact”. Besides, in [5] ([…], survival without treatment 5 days), the survival of mice is recorded as 7-9 days post-infection. Further, the “pulmonary inflammation and cellular infiltrates in BAL (total cells, alveolar macrophages, neutrophils, Ly6C+ macrophages, dendritic cells, MCP-1)” value in [5] (mouse, in vivo) is recorded as “reduce hyperinflammation in the airways”. On NLRP1 [6], the “poly I:C NLRP1 activation (IL-1β secretion)” value is reported as “inhibited poly I:C NLRP1 activation”. In addition, the “NLRP3 (Nigericin, MSU, Silica)-induced inflammasome activation” value at NLRP3 (BT032 20, 100 μM, MCC950 5 μM, secreted IL-1β) is “dose-dependently inhibited”. Further, the “potency in reducing IL-1β secretion compared with control probenecid compounds” value on NLRP3 inflammasome is reported as “more potent than the control probenecid compounds”.

With `CCCN(CCC)S(=O)(=O)c1ccc(N2CCC(CCCC(=O)O)CC2)cc1` [BT135, 4-(1-(4-(N,N-dipropylsulfamoyl)-phenyl)piperidin-4-yl)butanoic acid], the “NLRP1 … (secreted IL-1β)” value in the test on NLRP1 [2] was “dose-dependently inhibited”.

Consider `CCCN(CCC)S(=O)(=O)c1ccc(-c2nc(CCCC(=O)O)cs2)cc1` [BT136, 4-(2-(4-(N,N-dipropylsulfamoyl)phenyl)thiazol-4-yl)butanoic acid], for which the “NLRP1 … (secreted IL-1β)” value in the test on NLRP1 [2] is “dose-dependently inhibited”. For the same compound, at NLRP3 inflammasome, the “potency in reducing IL-1β secretion compared with control probenecid compounds” value is listed as “more potent than the control probenecid compounds”.

As to `CC(C)(O)c1coc(S(=O)(=O)NC(=O)Nc2c3c(cc4c2CCC4)CCC3)c1` [MCC950, reference compound], the “NLRP1 (L18-MDP)-induced inflammasome activation” value in the test on NLRP1 [3] is recorded as “no impact upon NLRP1 activity”.

The record behind these values is patent US12577211B2, “Probenecid compounds for the treatment of inflammasome-mediated lung disease” (Bacainn Biotherapeutics, Ltd., priority 2020, dated 2026).
